This is an account of results in US20260258032A1, “TYROSINE KINASE 2 INHIBITORS AND USES THEREOF” (BIOGEN MA INC., priority 2022, published 2026).

The test system of assay [1] is Tyk2 kinase activity on STAT4. Briefly: pSTAT4 cell assay (MSD, NK92 cells). Type of assay: cell-based. Conditions: compounds 1 hr. The method, boiled down: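 IC50 values derive from 4-parameter logistic fits of normalized percent activity against log compound concentration. Phospho-STAT was measured by MSD with anti-STAT4 antibodies after 15 min of 30 ng/mL IL2 in serum-starved NK92 cells pretreated 1 hr with compound.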

For assay [2], the target named is T1, JH2 domain of human Tyk2 (Homo sapiens, UniProt P29597).
T1 construct: 10×His-tagged TYK2 JH2 domain (amino acid 575-876)
Briefly: JH2 biochemical assay (TR-FRET probe displacement). Type of assay: binding. Summed up:
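10×His-tagged human TYK2 JH2 (aa 575-876, 2 nM) incubated 60 min with 2 nM fluorescent probe, 0.1 nM Tb anti-His antibody and compound (10-point 3-fold series from […] top). TR-FRET 520/495 nm ratio, falling with probe displacement, normalized and fitted to a 4-parameter logistic for IC50.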

Setting [3] is: TR-FRET probe displacement, JH2 domain of human Tyk2.

Counter-ions that a name gives are not always drawn.

T1 sequence (P29597 575-876): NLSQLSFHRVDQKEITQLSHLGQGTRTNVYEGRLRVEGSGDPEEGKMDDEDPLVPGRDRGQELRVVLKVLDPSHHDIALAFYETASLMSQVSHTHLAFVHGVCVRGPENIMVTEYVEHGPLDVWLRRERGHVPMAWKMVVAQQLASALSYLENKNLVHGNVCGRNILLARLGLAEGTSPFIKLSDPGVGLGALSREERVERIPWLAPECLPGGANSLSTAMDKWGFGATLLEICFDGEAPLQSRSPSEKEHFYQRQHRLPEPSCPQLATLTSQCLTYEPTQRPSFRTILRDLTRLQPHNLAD

As a reminder, the IC50 is the concentration that gives 50% inhibition. In the case of `CC(=O)Nc1cc2c(cn1)C1(CC1)CN2c1cc([C@@H]2C[C@H]2C#N)nc(C(C)(F)F)n1` (racemic) [Example 72, trans-rac-N-(1′-(6-(2-cyanocyclopropyl)-2-(1,1-difluoroethyl)pyrimidin-4-yl)-1′,2′-dihydrospiro[cyclopropane-1,3′-pyrrolo[3,2-c]pyridin]-6′-yl)acetamide or cis-rac-N-(1′-(6-(2-cyanocyclopropyl)-2-(1,1-difluoroethyl)pyrimidin-4-yl)-1′,2′-dihydrospiro[cyclopropane-1,3′-pyrrolo[3,2-c]pyridin]-6′-yl)acetamide], the IC50 in assay [1] (stimulated 15 minutes) was 100 to 1000 nM; in assay [2] (JH2 biochemical assay), not above 10 nM.

Take `CC(=O)Nc1cc2c(cn1)C1(CC1)CN2c1cc(C)cc(-c2ccn(C)n2)n1` [Example 256, N-(1′-(4-methyl-6-(1-methyl-1H-pyrazol-3-yl)pyridin-2-yl)-1′,2′-dihydrospiro[cyclopropane-1,3′-pyrrolo[3,2-c]pyridin]-6′-yl)acetamide trifluoroacetate]: the IC50 was not below 1000 nM in assay [1] (stimulated 15 minutes) and 10 to 100 nM in assay [2] (JH2 biochemical assay).

`CC(=O)Nc1cc2c(cn1)C1(CC1)CN2c1cc(OC2COC2)nc(C(C)(F)F)n1` [Example 141, N-(1′-(2-(1,1-difluoroethyl)-6-(oxetan-3-yloxy)pyrimidin-4-yl)-1′,2′-dihydrospiro[cyclopropane-1,3′-pyrrolo[3,2-c]pyridin]-6′-yl)acetamide]: the IC50 in assay [1] (stimulated 15 minutes) was 100 to 1000 nM; in assay [2] (JH2 biochemical assay), not above 10 nM.

For the molecule `CCC(C)(O)CCc1cc(N2CC3(CC3)c3cnc(NC(C)=O)cc32)nc(C(C)(F)F)n1` (stereo not drawn) [Example 324, N-(1′-(2-(1,1-difluoroethyl)-6-(3-hydroxy-3-methylpentyl)pyrimidin-4-yl)-1′,2′-dihydrospiro[cyclopropane-1,3′-pyrrolo[3,2-c]pyridin]-6′-yl)acetamide], the IC50 in assay [1] (stimulated 15 minutes) is 10 to 100 nM; in assay [2] (JH2 biochemical assay), not above 10 nM.

For `CC(=O)Nc1cc2c(cn1)C1(CC1)CN2c1cc(C)cc(N2CCN(C)C(C(F)F)C2)n1` (stereo not drawn) [Example 183, N-(1′-(6-(3-(difluoromethyl)-4-methylpiperazin-1-yl)-4-methylpyridin-2-yl)-1′,2′-dihydrospiro[cyclopropane-1,3′-pyrrolo[3,2-c]pyridin]-6′-yl)acetamide], the IC50 in assay [1] (stimulated 15 minutes) was not below 1000 nM; in assay [2] (JH2 biochemical assay), 100 to 1000 nM.

On to `COCC(C)Nc1cc(N2CC3(CC3)c3cnc(NC(C)=O)cc32)nc(C(C)(F)F)n1` (stereo not drawn) [Example 178, N-(1′-(2-(1,1-difluoroethyl)-6-((1-methoxypropan-2-yl)amino)pyrimidin-4-yl)-1′,2′-dihydrospiro[cyclopropane-1,3′-pyrrolo[3,2-c]pyridin]-6′-yl)acetamide trifluoroacetate], for which the IC50 was 10 to 100 nM in assay [1] (stimulated 15 minutes) and not above 10 nM in assay [2] (JH2 biochemical assay).

For the molecule `CC(=O)Nc1cc2c(cn1)C1(CC1)CN2c1cc(OC(C#N)C2CC2)nc(C(C)(F)F)n1` (stereo not drawn) [Example 152, N-(1′-(6-(cyano(cyclopropyl)methoxy)-2-(1,1-difluoroethyl)pyrimidin-4-yl)-1′,2′-dihydrospiro[cyclopropane-1,3′-pyrrolo[3,2-c]pyridin]-6′-yl)acetamide trifluoroacetate], the figures for the IC50 in assay [1] (stimulated 15 minutes) and in assay [2] (JH2 biochemical assay) were 100 to 1000 nM and 10 to 100 nM, respectively.

As for `CC(=O)Nc1cc2c(cn1)C1(CC1)CN2c1cc(C)cc(N2CCC(O)C2)n1` (stereo not drawn) [Example 189, N-(1′-(6-(3-hydroxypyrrolidin-1-yl)-4-methylpyridin-2-yl)-1′,2′-dihydrospiro[cyclopropane-1,3′-pyrrolo[3,2-c]pyridin]-6′-yl)acetamide], the values for the IC50 in assay [1] (stimulated 15 minutes) and in assay [2] (JH2 biochemical assay) were not below 1000 nM and 10 to 100 nM, respectively.

Take `CC(=O)Nc1cc2c(cn1)C1(CC1)CN2c1cc(C)nc(-n2cccn2)n1` [Example 100, N-(1′-(6-methyl-2-(1H-pyrazol-1-yl)pyrimidin-4-yl)-1′,2′-dihydrospiro[cyclopropane-1,3′-pyrrolo[3,2-c]pyridin]-6′-yl)acetamide]: the IC50 is not below 1000 nM in assay [1] (stimulated 15 minutes) and 10 to 100 nM in assay [2] (JH2 biochemical assay).

In the case of `COCC(F)(F)c1nccc(N2CC3(CC3)c3cnc(NC(C)=O)cc32)n1` [Example 323, N-(1′-(2-(1,1-difluoro-2-methoxyethyl)pyrimidin-4-yl)-1′,2′-dihydrospiro[cyclopropane-1,3′-pyrrolo[3,2-c]pyridin]-6′-yl)acetamide], the IC50 in assay [1] (stimulated 15 minutes) and in assay [2] (JH2 biochemical assay) was 100 to 1000 nM in each case.

Take `CC(=O)Nc1cc2c(cn1)C1(CC1)CN2c1cc(OC(C)C#N)nc(C(C)(F)F)n1` (stereo not drawn) [Example 151, N-(1′-(6-(1-cyanoethoxy)-2-(1,1-difluoroethyl)pyrimidin-4-yl)-1′,2′-dihydrospiro[cyclopropane-1,3′-pyrrolo[3,2-c]pyridin]-6′-yl)acetamide trifluoroacetate]: the IC50 was not below 1000 nM in assay [1] (stimulated 15 minutes) and 10 to 100 nM in assay [2] (JH2 biochemical assay).

On to `CC(=O)Nc1cc2c(cn1)C1(CC1)CN2c1cc(C)nc(N2CCCCC2)n1` [Example 113, N-(1′-(6-methyl-2-(piperidin-1-yl)pyrimidin-4-yl)-1′,2′-dihydrospiro[cyclopropane-1,3′-pyrrolo[3,2-c]pyridin]-6′-yl)acetamide], for which the IC50 in assay [1] (stimulated 15 minutes) was not below 1000 nM; in assay [2] (JH2 biochemical assay), 10 to 100 nM.

`CC(=O)Nc1cc2c(cn1)C1(CC1)CN2c1cc(C)nc(N2CC(F)C2)n1` [Example 217, N-(1′-(2-(3-fluoroazetidin-1-yl)-6-methylpyrimidin-4-yl)-1′,2′-dihydrospiro[cyclopropane-1,3′-pyrrolo[3,2-c]pyridin]-6′-yl)acetamide]: the IC50 is 100 to 1000 nM in assay [1] (stimulated 15 minutes) and not above 10 nM in assay [2] (JH2 biochemical assay).

Turning to `CC(=O)Nc1cc2c(cn1)C1(CC1)CN2c1cc(NC(C)C)nc(C(C)(F)F)n1` [Example 153, N-(1′-(2-(1,1-difluoroethyl)-6-(isopropylamino)pyrimidin-4-yl)-1′,2′-dihydrospiro[cyclopropane-1,3′-pyrrolo[3,2-c]pyridin]-6′-yl)acetamide trifluoroacetate], the IC50 in assay [1] (stimulated 15 minutes) was 10 to 100 nM; in assay [2] (JH2 biochemical assay), not above 10 nM.

In the case of `CC(=O)Nc1cc2c(cn1)C1(CC1)CN2c1cc(-c2ccn(C)n2)nc(C(C)(F)F)n1` [Example 241, N-(1′-(2-(1,1-difluoroethyl)-6-(1-methyl-1H-pyrazol-3-yl)pyrimidin-4-yl)-1′,2′-dihydrospiro[cyclopropane-1,3′-pyrrolo[3,2-c]pyridin]-6′-yl)acetamide], the IC50 in assay [1] (stimulated 15 minutes) was 10 to 100 nM; in assay [2] (JH2 biochemical assay), not above 10 nM.

For `CC(=O)Nc1cc2c(cn1)C1(CC1)CN2c1cc(C)nc(CO)n1` [Example 126, N-(1′-(2-(hydroxymethyl)-6-methylpyrimidin-4-yl)-1′,2′-dihydrospiro[cyclopropane-1,3′-pyrrolo[3,2-c]pyridin]-6′-yl)acetamide], the IC50 was not below 1000 nM in assay [1] (stimulated 15 minutes) and 10 to 100 nM in assay [2] (JH2 biochemical assay).

As to `CC(=O)Nc1cc2c(cn1)C1(CC1)CN2c1cc(C)cc(N2CC(C)(O)C2)n1` [Example 205, N-(1′-(6-(3-hydroxy-3-methylazetidin-1-yl)-4-methylpyridin-2-yl)-1′,2′-dihydrospiro[cyclopropane-1,3′-pyrrolo[3,2-c]pyridin]-6′-yl)acetamide], the results for the IC50 in assay [1] (stimulated 15 minutes) and in assay [2] (JH2 biochemical assay) were not below 1000 nM and 10 to 100 nM, respectively.

For the molecule `CC(=O)Nc1cc2c(cn1)C1(CC1)CN2c1cc(C)nc(C2COC2)n1` [Example 396, N-(1′-(6-methyl-2-(oxetan-3-yl)pyrimidin-4-yl)-1′,2′-dihydrospiro[cyclopropane-1,3′-pyrrolo[3,2-c]pyridin]-6′-yl)acetamide], the values for the IC50 in assay [1] (then stimulated 15 minutes) and in assay [2] (setting [3]) were not below 1000 nM and 10 to 100 nM, respectively.

On to `CC(=O)Nc1cc2c(cn1)C1(CC1)CN2c1ccccn1` [Example 94, N-(1′-(pyridin-2-yl)-1′,2′-dihydrospiro[cyclopropane-1,3′-pyrrolo[3,2-c]pyridin]-6′-yl)acetamide], for which the figures for the IC50 in assay [1] (stimulated 15 minutes) and in assay [2] (JH2 biochemical assay) were not below 1000 nM and 100 to 1000 nM, respectively.

Turning to `CC(=O)Nc1cc2c(cn1)C1(CC1)CN2c1cc(C)nc(N2CC[C@H](C#N)C2)n1` [Example 408, (S)-N-(1′-(2-(3-cyanopyrrolidin-1-yl)-6-methylpyrimidin-4-yl)-1′,2′-dihydrospiro[cyclopropane-1,3′-pyrrolo[3,2-c]pyridin]-6′-yl)acetamide], the IC50 was 100 to 1000 nM in assay [1] (then stimulated 15 minutes) and 10 to 100 nM in assay [2] (setting [3]).

As to `CC(=O)Nc1cc2c(cn1)C1(CC1)CN2c1cc(C)cc(C(F)(F)CF)n1` [Example 316, N-(1′-(4-methyl-6-(1,1,2-trifluoroethyl)pyridin-2-yl)-1′,2′-dihydrospiro[cyclopropane-1,3′-pyrrolo[3,2-c]pyridin]-6′-yl)acetamide trifluoroacetate], the IC50 is 10 to 100 nM in assay [1] (stimulated 15 minutes) and not above 10 nM in assay [2] (JH2 biochemical assay).

Turning to `CCc1cc(N2CC3(CC3)c3cnc(NC(C)=O)cc32)nc(C2CCOC2)n1` (stereo not drawn) [Example 321, N-(1′-(6-ethyl-2-(tetrahydrofuran-3-yl)pyrimidin-4-yl)-1′,2′-dihydrospiro[cyclopropane-1,3′-pyrrolo[3,2-c]pyridin]-6′-yl)acetamide trifluoroacetate], the IC50 in assay [1] (stimulated 15 minutes) was 10 to 100 nM; in assay [2] (JH2 biochemical assay), not above 10 nM.

On to `CC(=O)Nc1cc2c(cn1)C1(CC1)CN2c1cc(C)nc(N2CCC(O)CC2)n1` [Example 232, N-(1′-(2-(4-hydroxypiperidin-1-yl)-6-methylpyrimidin-4-yl)-1′,2′-dihydrospiro[cyclopropane-1,3′-pyrrolo[3,2-c]pyridin]-6′-yl)acetamide], for which the IC50 was not below 1000 nM in assay [1] (stimulated 15 minutes) and 100 to 1000 nM in assay [2] (JH2 biochemical assay).

In the case of `CC(=O)Nc1cc2c(cn1)C1(CC1)CN2c1cc(C)nc(OC2CC3(COC3)C2)n1` [Example 364, N-(1′-(2-((2-oxaspiro[3.3]heptan-6-yl)oxy)-6-methylpyrimidin-4-yl)-1′,2′-dihydrospiro[cyclopropane-1,3′-pyrrolo[3,2-c]pyridin]-6′-yl)acetamide], the results for the IC50 in assay [1] (stimulated 15 minutes) and in assay [2] (JH2 biochemical assay) were not below 1000 nM and 100 to 1000 nM, respectively.
